“And” between values parts separate entries of the source, which are not always exact repeats. Equal entries are not always repeated. Toxic doses and inconclusive results are not listed.
Tested on: P388 leukemia ip, CD2F1 mice, survival T/C
Test: NCI In Vivo Anticancer Drug Screen. Data for tumor model P388 Leukemia (intraperitoneal) in CD2F1 (CDF1) mice
Settings: endpoint: median survival time, higher = longer survival
Procedure, shortened: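 Mice carrying the transplanted tumor received test compound or vehicle. Survival was recorded in each group, and the value is the treated-group measurement divided by that of the vehicle-treated control group.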

[1] = dose: 25.0 mg/kg/injection, schedule: Q01DX009 (ip), vehicle: saline
[2] = dose: 50.0 mg/kg/injection, schedule: Q01DX009 (ip), vehicle: saline with Tween-80
[3] = dose: 50.0 mg/kg/injection, schedule: Q01DX009 (ip), vehicle: saline
[4] = dose: 200.0 mg/kg/injection, schedule: Q01DX009 (ip), vehicle: saline with Tween-80
[5] = dose: 100.0 mg/kg/injection, schedule: Q04DX003 (ip), vehicle: saline with Tween-80
[6] = dose: 25.0 mg/kg/injection, schedule: Q01DX009 (ip), vehicle: saline with Tween-80
[7] = dose: 100.0 mg/kg/injection, schedule: Q01DX009 (ip), vehicle: saline with Tween-80
[8] = dose: 60.0 mg/kg/injection, schedule: Q01DX005 (ip), vehicle: saline with Tween-80
[9] = dose: 120.0 mg/kg/injection, schedule: Q01DX005 (ip), vehicle: saline with Tween-80
[10] = dose: 240.0 mg/kg/injection, schedule: Q01DX005 (ip), vehicle: saline with Tween-80
[11] = dose: 50.0 mg/kg/injection, schedule: Q01DX005 (ip), vehicle: Klucel (hydroxypropylcellulose) (HPC)
[12] = dose: 100.0 mg/kg/injection, schedule: Q01DX005 (ip), vehicle: Klucel (hydroxypropylcellulose) (HPC)
[13] = dose: 50.0 mg/kg/injection, schedule: Q04DX003 (ip), vehicle: saline with Tween-80
[14] = dose: 400.0 mg/kg/injection, schedule: Q01DX009 (ip), vehicle: saline with Tween-80

`O=CC=O` was tested, and the T/C [1] was 98 % of control, the T/C [2] was 116 % of control and the T/C [3] was 120 % of control. The T/C [4] was 152 % of control and the T/C (dose: 200.0 mg/kg/injection, schedule: Q01DX009 (ip), vehicle: saline) was 88 % of control.
For `C/C(=N\N=C(N)N)c1ccc2c(c1)Cc1cc(/C(C)=N/N=C(N)N)ccc1-2`, the T/C (dose: 3.12 mg/kg/injection, schedule: Q04DX002 (ip), vehicle: saline with Tween-80) was 100 % of control and 107 % of control, the T/C (dose: 6.25 mg/kg/injection, schedule: Q04DX002 (ip), vehicle: saline with Tween-80) was 107 % of control and 108 % of control and the T/C (dose: 12.5 mg/kg/injection, schedule: Q04DX002 (ip), vehicle: saline with Tween-80) was 115 % of control (2×) and 122 % of control. For the same compound, the T/C (dose: 25.0 mg/kg/injection, schedule: Q04DX002 (ip), vehicle: saline with Tween-80) was 120 % of control and 121 % of control and 123 % of control, the T/C (dose: 50.0 mg/kg/injection, schedule: Q04DX002 (ip), vehicle: saline with Tween-80) was 115 % of control and 121 % of control and 124 % of control and the T/C (dose: 100.0 mg/kg/injection, schedule: Q04DX002 (ip), vehicle: saline with Tween-80) was 112 % of control and 122 % of control. The T/C (dose: 200.0 mg/kg/injection, schedule: Q04DX002 (ip), vehicle: saline with Tween-80) was 122 % of control.
With `COc1cc(Br)c(/C=C/[N+](=O)[O-])cc1OC` the T/C [5] was 116 % of control.
`COc1cc(Cl)nc(OC)n1` was tested, and the T/C [6] was 108 % of control, the T/C [2] was 89 % of control and the T/C [7] was 103 % of control. The T/C [4] was 103 % of control.
In the case of `Cc1c2c(cn1C)NC(=O)CN=C2c1ccccc1`, the T/C [2] is reported as 105 % of control, the T/C [7] is reported as 116 % of control and the T/C [4] is reported as 99 % of control.
In the case of `CCC1C(OC)=CC2(CC)CC1(OC)OC2=O` (configuration not stated), the T/C [8] is reported as 97 % of control, the T/C [9] is reported as 98 % of control and the T/C [10] is reported as 102 % of control.
For `C#CCn1cnc2c(=S)nc[nH]c21`, the T/C (dose: 180.0 mg/kg/injection, schedule: Q01DX009 (ip), vehicle: saline with Tween-80) was 87 % of control.
`CCCCCCNC(N)=NCCCC(N)C(=O)O` (configuration not stated) was tested, and the T/C [11] was 103 % of control, the T/C [12] was 102 % of control and the T/C (dose: 200.0 mg/kg/injection, schedule: Q01DX005 (ip), vehicle: Klucel (hydroxypropylcellulose) (HPC)) was 106 % of control.
With `CC(=O)OCC#CCN1CCOCC1` the T/C (dose: 50.0 mg/kg/injection, schedule: Q01DX005 (ip), vehicle: saline) was 124 % of control, the T/C (dose: 60.0 mg/kg/injection, schedule: Q01DX005 (ip), vehicle: suspension in saline) was 102 % of control and the T/C (dose: 120.0 mg/kg/injection, schedule: Q01DX005 (ip), vehicle: suspension in saline) was 100 % of control.
With `CCC(CC)COC(=O)c1ccccc1C(=O)OCC(CC)CC` the T/C [7] was 110 % of control and 96 % of control and the T/C [4] was 101 % of control and 117 % of control.
With `CN(N=O)C(=O)Nc1ccc(C(=O)O)cc1` the T/C [6] was 181 % of control, the T/C (dose: 25.0 mg/kg/injection, schedule: Q04DX003 (ip), vehicle: saline with Tween-80) was 155 % of control and the T/C [2] was 181 % of control. For the same compound, the T/C [13] was 180 % of control, the T/C (dose: 66.0 mg/kg/injection, schedule: Q04DX003 (ip), vehicle: saline with Tween-80) was 159 % of control and the T/C [5] was 172 % of control and 200 % of control.
`Nc1nc(-c2ccc(Cl)cc2)nc2sc3c(c12)CCCCC3` was tested, and the T/C (dose: 50.0 mg/kg/injection, schedule: Q01DX005 (ip), vehicle: saline with Tween-80) was 90 % of control, the T/C (dose: 100.0 mg/kg/injection, schedule: Q01DX005 (ip), vehicle: saline with Tween-80) was 90 % of control and the T/C (dose: 200.0 mg/kg/injection, schedule: Q01DX005 (ip), vehicle: saline with Tween-80) was 95 % of control.
With `OB(O)c1ccc(B(O)O)cc1` the T/C (dose: 50.0 mg/kg/injection, schedule: Q01DX009 (ip), vehicle: Klucel (hydroxypropylcellulose) (HPC)) was 104 % of control, the T/C (dose: 100.0 mg/kg/injection, schedule: Q01DX009 (ip), vehicle: Klucel (hydroxypropylcellulose) (HPC)) was 103 % of control and the T/C (dose: 200.0 mg/kg/injection, schedule: Q01DX009 (ip), vehicle: Klucel (hydroxypropylcellulose) (HPC)) was 95 % of control. For the same compound, the T/C (dose: 400.0 mg/kg/injection, schedule: Q01DX009 (ip), vehicle: Klucel (hydroxypropylcellulose) (HPC)) was 104 % of control.
For `O=[N+]([O-])c1ccc2nc3ccccc3cc2c1`, the T/C (dose: 50.0 mg/kg/injection, schedule: Q04DX003 (ip), vehicle: saline) was 112 % of control, the T/C (dose: 100.0 mg/kg/injection, schedule: Q04DX003 (ip), vehicle: saline) was 96 % of control and the T/C (dose: 200.0 mg/kg/injection, schedule: Q04DX003 (ip), vehicle: saline) was 96 % of control. For the same compound, the T/C (dose: 400.0 mg/kg/injection, schedule: Q04DX003 (ip), vehicle: saline) was 93 % of control.
`CC(=O)OC1CCCCC1C` (configuration not stated) was tested, and the T/C [2] was 113 % of control, the T/C [13] was 105 % of control and the T/C [7] was 118 % of control. The T/C [5] was 110 % of control, the T/C [4] was 109 % of control and the T/C (dose: 200.0 mg/kg/injection, schedule: Q04DX003 (ip), vehicle: saline with Tween-80) was 110 % of control.
With `Nc1n[nH]c2c3c([nH]c(=O)c12)-c1ccccc1SC3` the T/C (dose: 100.0 mg/kg/injection, schedule: Q04DX002 (ip), vehicle: Klucel (hydroxypropylcellulose) (HPC)) was 102 % of control, the T/C (dose: 200.0 mg/kg/injection, schedule: Q04DX002 (ip), vehicle: Klucel (hydroxypropylcellulose) (HPC)) was 88 % of control and the T/C (dose: 400.0 mg/kg/injection, schedule: Q04DX002 (ip), vehicle: Klucel (hydroxypropylcellulose) (HPC)) was 86 % of control.
For `Oc1cccc(NCNC2Nc3ccccc3N2)c1`, the T/C (dose: 15.0 mg/kg/injection, schedule: Q01DX005 (ip), vehicle: saline with Tween-80) was 94 % of control and the T/C (dose: 30.0 mg/kg/injection, schedule: Q01DX005 (ip), vehicle: saline with Tween-80) was 95 % of control.
In the case of `N#CC(C(=O)N1CCCC1)=C(S)S`, the T/C [7] is reported as 100 % of control, the T/C [4] is reported as 100 % of control and the T/C [14] is reported as 100 % of control.
With `CC1=C(/C=C/c2ccc(N(C)C)cc2)C(C)C(c2ccc(N(C)C)cc2)CC1=O` (configuration not stated) the T/C (dose: 25.0 mg/kg/injection, schedule: Q01DX001 (ip), vehicle: Klucel (hydroxypropylcellulose) (HPC)) was 88 % of control, the T/C (dose: 50.0 mg/kg/injection, schedule: Q01DX001 (ip), vehicle: Klucel (hydroxypropylcellulose) (HPC)) was 94 % of control and the T/C (dose: 100.0 mg/kg/injection, schedule: Q01DX001 (ip), vehicle: Klucel (hydroxypropylcellulose) (HPC)) was 93 % of control.
For `C[CH2][Pb]([CH2]C)([CH2]C)[N]1C(=O)c2ccccc2C1=O`, the T/C (dose: 1.56 mg/kg/injection, schedule: Q01DX009 (ip), vehicle: Klucel (hydroxypropylcellulose) (HPC)) was 110 % of control and the T/C (dose: 3.12 mg/kg/injection, schedule: Q01DX009 (ip), vehicle: Klucel (hydroxypropylcellulose) (HPC)) was 118 % of control.
For `CN([NH-])C(=S)[S-].CN([NH-])C(=S)[S-].[Ni]`, the T/C (dose: 50.0 mg/kg/injection, schedule: Q04DX003 (ip), vehicle: Klucel (hydroxypropylcellulose) (HPC)) was 100 % of control, the T/C [13] was 100 % of control and the T/C (dose: 100.0 mg/kg/injection, schedule: Q01DX001 (ip), vehicle: saline with Tween-80) was 120 % of control. The T/C [5] was 100 % of control, the T/C (dose: 200.0 mg/kg/injection, schedule: Q01DX001 (ip), vehicle: saline with Tween-80) was 101 % of control and the T/C (dose: 200.0 mg/kg/injection, schedule: Q04DX003 (ip), vehicle: Klucel (hydroxypropylcellulose) (HPC)) was 117 % of control. For the same compound, the T/C (dose: 400.0 mg/kg/injection, schedule: Q01DX001 (ip), vehicle: saline with Tween-80) was 123 % of control.
With `O=C(CCl)NC(Cc1ccc(O)cc1)C(=O)O` (configuration not stated) the T/C [6] was 104 % of control, the T/C [2] was 99 % of control and the T/C [7] was 101 % of control and 105 % of control. The T/C [4] was 94 % of control and the T/C [14] was 114 % of control.
For `CC(=O)Nc1nc(C)c([N+](=O)[O-])s1`, the T/C [2] was 105 % of control, the T/C [7] was 93 % of control and the T/C [4] was 100 % of control.
For `CS(=O)(=O)c1nnc(-c2cccc[n+]2[O-])s1`, the T/C [11] was 116 % of control and the T/C [12] was 114 % of control.
For `Cc1ccc(C(=O)CCN(C)C)cc1`, the T/C (dose: 6.25 mg/kg/injection, schedule: Q01DX009 (ip), vehicle: saline) was 105 % of control, the T/C (dose: 12.5 mg/kg/injection, schedule: Q01DX009 (ip), vehicle: saline) was 100 % of control and the T/C [1] was 96 % of control. For the same compound, the T/C [3] was 98 % of control and 106 % of control and the T/C (dose: 100.0 mg/kg/injection, schedule: Q01DX009 (ip), vehicle: saline) was 107 % of control.
In the case of `CN(C)c1nnnn1-c1ccccc1`, the T/C [8] is reported as 104 % of control, the T/C [9] is reported as 107 % of control and the T/C [10] is reported as 107 % of control.
For `O=C(CBr)C(=O)OCc1ccccc1`, the T/C (dose: 0.78 mg/kg/injection, schedule: Q01DX009 (ip), vehicle: water) was 100 % of control, the T/C (dose: 1.56 mg/kg/injection, schedule: Q01DX009 (ip), vehicle: water) was 99 % of control and the T/C (dose: 3.13 mg/kg/injection, schedule: Q01DX009 (ip), vehicle: water) was 94 % of control. The T/C (dose: 6.25 mg/kg/injection, schedule: Q01DX009 (ip), vehicle: water) was 102 % of control.
